pIC50: −log10 of the molar value.
Legend:
SW1088 = experiment: cells; format: functional, cell-based; conditions: Homo sapiens
Description: SANGER: Inhibition of human SW1088 cell growth in a cell viability assay.

SK-MEL3 = experiment: cells; format: functional, cell-based, SK-MEL-3; conditions: Homo sapiens
Description: SANGER: Inhibition of human SK-MEL-3 cell growth in a cell viability assay.

COR-L23 = experiment: cells; format: functional, cell-based; conditions: Homo sapiens
Description: SANGER: Inhibition of human COR-L23 cell growth in a cell viability assay.

PFSK-1 = experiment: cells; format: functional, cell-based; conditions: Homo sapiens
Description: SANGER: Inhibition of human PFSK-1 cell growth in a cell viability assay.

NB12 = experiment: cells; format: functional, cell-based; conditions: Homo sapiens
Description: SANGER: Inhibition of human NB12 cell growth in a cell viability assay.

YAPC = experiment: cells; format: functional, cell-based; conditions: Homo sapiens
Description: SANGER: Inhibition of human YAPC cell growth in a cell viability assay.

SW1990 = experiment: cells; format: functional, cell-based; conditions: Homo sapiens
Description: SANGER: Inhibition of human SW1990 cell growth in a cell viability assay.

8305C = experiment: cells; format: functional, cell-based; conditions: Homo sapiens
Description: SANGER: Inhibition of human 8305C cell growth in a cell viability assay.

U2OS = experiment: cells; format: functional, cell-based, U-2-OS; conditions: Homo sapiens
Description: SANGER: Inhibition of human U-2-OS cell growth in a cell viability assay.

C32 = experiment: cells; format: functional, cell-based; conditions: Homo sapiens
Description: SANGER: Inhibition of human C32 cell growth in a cell viability assay.

SK-HEP1 = experiment: cells; format: functional, cell-based, SK-HEP-1; conditions: Homo sapiens
Description: SANGER: Inhibition of human SK-HEP-1 cell growth in a cell viability assay.

DMS-273 = experiment: cells; format: functional, cell-based; conditions: Homo sapiens
Description: SANGER: Inhibition of human DMS-273 cell growth in a cell viability assay.

S-117 = experiment: cells; format: functional, cell-based; conditions: Homo sapiens
Description: SANGER: Inhibition of human S-117 cell growth in a cell viability assay.

NCI-H2030 = experiment: cells; format: functional, cell-based; conditions: Homo sapiens
Description: SANGER: Inhibition of human NCI-H2030 cell growth in a cell viability assay.

HCT-15 = experiment: cells; format: functional, cell-based; conditions: Homo sapiens
Description: SANGER: Inhibition of human HCT-15 cell growth in a cell viability assay.

NCI-H1573 = experiment: cells; format: functional, cell-based; conditions: Homo sapiens
Description: SANGER: Inhibition of human NCI-H1573 cell growth in a cell viability assay.

MKN-7 = experiment: cells; format: functional, cell-based; conditions: Homo sapiens
Description: SANGER: Inhibition of human MKN7 cell growth in a cell viability assay.

NCI-H520 = experiment: cells; format: functional, cell-based; conditions: Homo sapiens
Description: SANGER: Inhibition of human NCI-H520 cell growth in a cell viability assay.

A2058 = experiment: cells; format: functional, cell-based; conditions: Homo sapiens
Description: SANGER: Inhibition of human A2058 cell growth in a cell viability assay.

HEC-1 = experiment: cells; format: functional, cell-based; conditions: Homo sapiens
Description: SANGER: Inhibition of human HEC-1 cell growth in a cell viability assay.

SBC-5 = experiment: cells; format: functional, cell-based; conditions: Homo sapiens
Description: SANGER: Inhibition of human SBC-5 cell growth in a cell viability assay.

G-401 = experiment: cells; format: functional, cell-based; conditions: Homo sapiens
Description: SANGER: Inhibition of human G-401 cell growth in a cell viability assay.

H4 = experiment: cells; format: functional, cell-based; conditions: Homo sapiens
Description: SANGER: Inhibition of human H4 cell growth in a cell viability assay.

CP50-MEL-B = experiment: cells; format: functional, cell-based; conditions: Homo sapiens
Description: SANGER: Inhibition of human CP50-MEL-B cell growth in a cell viability assay.

HCC1806 = experiment: cells; format: functional, cell-based; conditions: Homo sapiens
Description: SANGER: Inhibition of human HCC1806 cell growth in a cell viability assay.

HSC-4 = experiment: cells; format: functional, cell-based; conditions: Homo sapiens
Description: SANGER: Inhibition of human HSC-4 cell growth in a cell viability assay.

OAW-42 = experiment: cells; format: functional, cell-based; conditions: Homo sapiens
Description: SANGER: Inhibition of human OAW-42 cell growth in a cell viability assay.

HCC1569 = experiment: cells; format: functional, cell-based; conditions: Homo sapiens
Description: SANGER: Inhibition of human HCC1569 cell growth in a cell viability assay.

MDA-MB-175-VII = experiment: cells; format: functional, cell-based; conditions: Homo sapiens
NCI-H1623 = experiment: cells; format: functional, cell-based; conditions: Homo sapiens
Description: SANGER: Inhibition of human NCI-H1623 cell growth in a cell viability assay.

NCI-H650 = experiment: cells; format: functional, cell-based; conditions: Homo sapiens
Description: SANGER: Inhibition of human NCI-H650 cell growth in a cell viability assay.

SCC-25 = experiment: cells; format: functional, cell-based; conditions: Homo sapiens
Description: SANGER: Inhibition of human SCC-25 cell growth in a cell viability assay.

SW1710 = experiment: cells; format: functional, cell-based; conditions: Homo sapiens
Description: SANGER: Inhibition of human SW1710 cell growth in a cell viability assay.

KYSE-520 cell line = experiment: cells; format: functional, cell-based; conditions: Homo sapiens
Description: SANGER: Inhibition of human KYSE-520 cell growth in a cell viability assay.

HSC-3 = experiment: cells; format: functional, cell-based; conditions: Homo sapiens
Description: SANGER: Inhibition of human HSC-3 cell growth in a cell viability assay.

RERF-LC-MS = experiment: cells; format: functional, cell-based; conditions: Homo sapiens
Description: SANGER: Inhibition of human RERF-LC-MS cell growth in a cell viability assay.

BHT-101 = experiment: cells; format: functional, cell-based; conditions: Homo sapiens
Description: SANGER: Inhibition of human BHT-101 cell growth in a cell viability assay.

MDA-MB-453 = experiment: cells; format: functional, cell-based; conditions: Homo sapiens
Description: SANGER: Inhibition of human MDA-MB-453 cell growth in a cell viability assay.

UMC-11 = experiment: cells; format: functional, cell-based; conditions: Homo sapiens
Description: SANGER: Inhibition of human UMC-11 cell growth in a cell viability assay.

UMUC3 = experiment: cells; format: functional, cell-based; conditions: Homo sapiens
Description: SANGER: Inhibition of human UM-UC-3 cell growth in a cell viability assay.

KYSE-270 = experiment: cells; format: functional, cell-based; conditions: Homo sapiens
Description: SANGER: Inhibition of human KYSE-270 cell growth in a cell viability assay.

CHP-212 = experiment: cells; format: functional, cell-based; conditions: Homo sapiens
Description: SANGER: Inhibition of human CHP-212 cell growth in a cell viability assay.

647-V = experiment: cells; format: functional, cell-based; conditions: Homo sapiens
Description: SANGER: Inhibition of human 647-V cell growth in a cell viability assay.

ChaGo-K-1 = experiment: cells; format: functional, cell-based; conditions: Homo sapiens
Description: SANGER: Inhibition of human ChaGo-K-1 cell growth in a cell viability assay.

LC4-1 = experiment: cells; format: functional, cell-based; conditions: Homo sapiens
Description: SANGER: Inhibition of human LC4-1 cell growth in a cell viability assay.

YT = experiment: cells; format: functional, cell-based; conditions: Homo sapiens
Description: SANGER: Inhibition of human YT cell growth in a cell viability assay.

NCI-H322M = experiment: cells; format: functional, cell-based; conditions: Homo sapiens
Description: SANGER: Inhibition of human NCI-H322M cell growth in a cell viability assay.

NCI-H524 = experiment: cells; format: functional, cell-based; conditions: Homo sapiens
Description: SANGER: Inhibition of human NCI-H524 cell growth in a cell viability assay.

OPM-2 = experiment: cells; format: functional, cell-based; conditions: Homo sapiens
Description: SANGER: Inhibition of human OPM-2 cell growth in a cell viability assay.

TE-441-T = experiment: cells; format: functional, cell-based; conditions: Homo sapiens
Description: SANGER: Inhibition of human TE-441-T cell growth in a cell viability assay.

HCC1599 = experiment: cells; format: functional, cell-based; conditions: Homo sapiens
Description: SANGER: Inhibition of human HCC1599 cell growth in a cell viability assay.

CAL-148 = experiment: cells; format: functional, cell-based; conditions: Homo sapiens
Description: SANGER: Inhibition of human CAL-148 cell growth in a cell viability assay.

NCI-H1522 = experiment: cells; format: functional, cell-based; conditions: Homo sapiens
Description: SANGER: Inhibition of human NCI-H1522 cell growth in a cell viability assay.

SCC-3 = experiment: cells; format: functional, cell-based; conditions: Homo sapiens
Description: SANGER: Inhibition of human SCC-3 cell growth in a cell viability assay.

ST486 = experiment: SANGER: Inhibition of human ST486 cell growth in a cell viability assay.; format: functional, cell-based
EB-3 = experiment: cells; format: functional, cell-based; conditions: Homo sapiens
Description: SANGER: Inhibition of human EB-3 cell growth in a cell viability assay.

CESS = experiment: SANGER: Inhibition of human CESS cell growth in a cell viability assay.; format: functional, cell-based
BL-70 = experiment: SANGER: Inhibition of human BL-70 cell growth in a cell viability assay.; format: functional, cell-based
NCI-H716 = experiment: cells; format: functional, cell-based; conditions: Homo sapiens
Description: SANGER: Inhibition of human NCI-H716 cell growth in a cell viability assay.

Raji = experiment: cells; format: functional, cell-based; conditions: Homo sapiens
Description: SANGER: Inhibition of human Raji cell growth in a cell viability assay.

A253 cell line = experiment: cells; format: functional, cell-based; conditions: Homo sapiens
Description: SANGER: Inhibition of human A253 cell growth in a cell viability assay.

NCI-H1417 = experiment: cells; format: functional, cell-based; conditions: Homo sapiens
Description: SANGER: Inhibition of human NCI-H1417 cell growth in a cell viability assay.

L-540 = experiment: cells; format: functional, cell-based; conditions: Homo sapiens
Description: SANGER: Inhibition of human L-540 cell growth in a cell viability assay.

PF-382 = experiment: cells; format: functional, cell-based; conditions: Homo sapiens
Description: SANGER: Inhibition of human PF-382 cell growth in a cell viability assay.

## Cn1cc(/C=C2\C(=O)Nc3cccnc32)c2ccccc21
SW1088
  pIC50: < 5.70
SK-MEL3
  pIC50: < 5.70
COR-L23
  pIC50: < 5.70
PFSK-1
  pIC50: < 5.70
NB12
  pIC50: < 5.70
YAPC
  pIC50: < 5.70
SW1990
  pIC50: < 5.70
8305C
  pIC50: < 5.70
U2OS
  pIC50: < 5.70
C32
  pIC50: < 5.70
SK-HEP1
  pIC50: < 5.70
DMS-273
  pIC50: < 5.70
S-117
  pIC50: < 5.70
NCI-H2030
  pIC50: < 5.70
HCT-15
  pIC50: < 5.70
NCI-H1573
  pIC50: < 5.70
MKN-7
  pIC50: < 5.70
NCI-H520
  pIC50: < 5.70
A2058
  pIC50: < 5.70
HEC-1
  pIC50: < 5.70
SBC-5
  pIC50: < 5.70
G-401
  pIC50: < 5.70
H4
  pIC50: < 5.70
CP50-MEL-B
  pIC50: < 5.70
HCC1806
  pIC50: < 5.70
HSC-4
  pIC50: 5.71
OAW-42
  pIC50: < 5.70
HCC1569
  pIC50: < 5.70
MDA-MB-175-VII
  pIC50: < 5.70
NCI-H1623
  pIC50: < 5.70
NCI-H650
  pIC50: < 5.70
SCC-25
  pIC50: < 5.70
SW1710
  pIC50: < 5.70
KYSE-520 cell line
  pIC50: < 5.70
HSC-3
  pIC50: < 5.70
RERF-LC-MS
  pIC50: < 5.70
BHT-101
  pIC50: < 5.70
MDA-MB-453
  pIC50: < 5.70
UMC-11
  pIC50: < 5.70
UMUC3
  pIC50: < 5.70
KYSE-270
  pIC50: < 5.70
CHP-212
  pIC50: < 5.70
647-V
  pIC50: < 5.70
ChaGo-K-1
  pIC50: < 5.70

## COc1cc(Nc2c(C#N)cnc3cc(OCCCN4CCN(C)CC4)c(OC)cc23)c(Cl)cc1Cl [BOSUTINIB]
SW1088
  pIC50: < 5.70
SK-MEL3
  pIC50: < 5.70
COR-L23
  pIC50: < 5.70
PFSK-1
  pIC50: < 5.70
NB12
  pIC50: < 5.70
YAPC
  pIC50: < 5.70
SW1990
  pIC50: < 5.70
8305C
  pIC50: < 5.70
U2OS
  pIC50: < 5.70
C32
  pIC50: < 5.70
SK-HEP1
  pIC50: < 5.70
DMS-273
  pIC50: < 5.70
S-117
  pIC50: < 5.70
NCI-H2030
  pIC50: < 5.70
HCT-15
  pIC50: < 5.70
NCI-H1573
  pIC50: < 5.70
MKN-7
  pIC50: < 5.70
NCI-H520
  pIC50: < 5.70
A2058
  pIC50: < 5.70
HEC-1
  pIC50: < 5.70
SBC-5
  pIC50: < 5.70
G-401
  pIC50: < 5.70
H4
  pIC50: 5.91
CP50-MEL-B
  pIC50: < 5.70
HCC1806
  pIC50: 6.45
HSC-4
  pIC50: 6.77
OAW-42
  pIC50: < 5.70
HCC1569
  pIC50: < 5.70
MDA-MB-175-VII
  pIC50: < 5.70
NCI-H1623
  pIC50: < 5.70
NCI-H650
  pIC50: < 5.70
SCC-25
  pIC50: < 5.70
SW1710
  pIC50: < 5.70
KYSE-520 cell line
  pIC50: < 5.70
HSC-3
  pIC50: 5.95
RERF-LC-MS
  pIC50: < 5.70
BHT-101
  pIC50: 6.33
MDA-MB-453
  pIC50: < 5.70
UMC-11
  pIC50: < 5.70
UMUC3
  pIC50: < 5.70
KYSE-270
  pIC50: < 5.70
CHP-212
  pIC50: < 5.70
647-V
  pIC50: < 5.70
ChaGo-K-1
  pIC50: < 5.70

## CCn1c(-c2nonc2N)nc2cnc(Oc3cccc(NC(=O)c4ccc(OCCN5CCOCC5)cc4)c3)cc21 [GSK-269962A]
NB12
  pIC50: < 5.60
LC4-1
  pIC50: < 5.60
YT
  pIC50: < 5.60
NCI-H322M
  pIC50: < 5.60
NCI-H524
  pIC50: < 5.60
OPM-2
  pIC50: < 5.60
TE-441-T
  pIC50: < 5.60
HCC1599
  pIC50: < 5.60
CAL-148
  pIC50: < 5.60
NCI-H1522
  pIC50: < 5.60
SCC-3
  pIC50: < 5.60
ST486
  pIC50: < 5.60
EB-3
  pIC50: < 5.60
CESS
  pIC50: < 5.60
BL-70
  pIC50: < 5.60
NCI-H716
  pIC50: < 5.60
Raji
  pIC50: < 5.60
A253 cell line
  pIC50: < 5.60
NCI-H1417
  pIC50: < 5.60
L-540
  pIC50: < 5.60
PF-382
  pIC50: < 5.60

Reference: ChEMBL document CHEMBL1201861, “Genomics of Drug Sensitity in Cancer screening data, Wellcome Trust Sanger Institute”
